biological target: T1, aromatase (CYP19) (Homo sapiens, UniProt P11511); experiment: fluorogenic aromatase activity assay (Abcam kit), dose-response […]; format: biochemical
T1 construct: gene CYP19A1
T1 sequence (P11511 1-503): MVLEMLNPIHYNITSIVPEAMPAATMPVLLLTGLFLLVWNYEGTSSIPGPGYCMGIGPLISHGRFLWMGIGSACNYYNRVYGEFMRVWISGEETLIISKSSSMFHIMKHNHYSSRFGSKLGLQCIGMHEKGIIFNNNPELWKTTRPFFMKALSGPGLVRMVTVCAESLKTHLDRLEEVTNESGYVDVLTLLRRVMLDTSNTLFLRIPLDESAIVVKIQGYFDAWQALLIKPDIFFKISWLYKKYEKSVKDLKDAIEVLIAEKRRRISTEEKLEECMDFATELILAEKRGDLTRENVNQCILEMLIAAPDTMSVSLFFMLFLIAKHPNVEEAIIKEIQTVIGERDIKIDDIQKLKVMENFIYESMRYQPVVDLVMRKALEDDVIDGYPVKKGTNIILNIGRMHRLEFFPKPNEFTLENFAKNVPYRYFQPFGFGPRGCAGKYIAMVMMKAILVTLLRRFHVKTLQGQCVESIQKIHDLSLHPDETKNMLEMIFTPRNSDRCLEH

IC50 [µM] | SMILES
3.62 | COc1ccc(-n2nnc(C(C)=NN=c3sc(C(C)=O)nn3-c3ccccc3)c2C)cc1 [compound 4, 1-(5-((1-(1-(4-Methoxyphenyl)-5-methyl-1H-1,2,3-triazol-4-yl)ethylidene)hydrazono)-4-phenyl-4,5-dihydro-1,3,4-thiadiazol-2-yl)ethan-1-one]
1.99 | COc1ccc(-n2nnc(C(C)=NN=c3sc(C(C)=O)nn3-c3ccc(C)cc3)c2C)cc1 [compound 5, 1-(5-((1-(1-(4-Methoxyphenyl)-5-methyl-1H-1,2,3-triazol-4-yl)ethylidene)hydrazono)-4-(p-tolyl)-4,5-dihydro-1,3,4-thiadiazol-2-yl)ethan-1-one]
3.57 | CCOC(=O)c1nn(-c2ccccc2)c(=NN=C(C)c2nnn(-c3ccc(OC)cc3)c2C)s1 [compound 6, Ethyl 5-((1-(1-(4-Methoxyphenyl)-5-methyl-1H-1,2,3-triazol-4-yl)ethylidene)hydrazono)-4-phenyl-4,5-dihydro-1,3,4-thiadiazole-2-carboxylate]
2.99 | CCOC(=O)c1nn(-c2ccc(C)cc2)c(=NN=C(C)c2nnn(-c3ccc(OC)cc3)c2C)s1 [compound 7, Ethyl 5-((1-(1-(4-Methoxyphenyl)-5-methyl-1H-1,2,3-triazol-4-yl)ethylidene) hydrazono)-4-(p-tolyl)-4,5-dihydro-1,3,4-thiadiazole-2-carboxylate]
